From patent publication US20100028447A1, “Intranasal, Buccal, And Sublingual Administration Of Metanicotine Analogs” (TARGACEPT, INC., priority 2007, published 2010)
Entries after “also recorded” stand apart in the source; their conditions may differ.

What was measured:
[1] = In situ brain perfusion, single time-point method; conditions: for Kin relative to values reported for drugs that do not substantially penetrate the CNS: 50 μM
Description: Animals used in this study were Sprague-Dawley rats (approximate weight 250-300 grams), obtained from Hilltop Lab Animals, Scottdale, Pa. Upon arrival, the rats were assigned randomly to treatment groups and acclimated for at least 24 hours. The animals were housed two per cage and identified by cage labels. A single room was used for this study. The animals were supplied with water and a commercial rodent diet ad libitum. On the day of the experiment, each rat was anesthetized intraperitoneally with Ketamine HCl/Xylazine HCl solution prior to being implanted with a cannula into the left carotid artery. Branch arteries were […], and the cardiac supply was cut off prior to brain perfusion.
Perfusion was performed using the single time-point method. […] Following 30 seconds of perfusion, the pump was stopped, and the brain was removed from the skull immediately. The brain was cut longitudinally in […]. Each left cerebral hemisphere was placed into a chilled tube, frozen on dry ice, and stored frozen at −60° C. to −80° C. until analyzed. […] Test articles were perfused at concentrations of 50 μM. The outline of the experimental treatments and the target and measured concentrations of the test articles and control compounds in the perfusate are presented in Table 3.
The left brain hemisphere from each rat was thawed and weighed. Methanol (20% aqueous) was added to each left brain hemisphere at approximately 4 mL per 1 g of brain tissue, and the mixture was homogenized using sonication with a VirSonic Ultrasonic Cell Disruptor 100 (VirTis). The test articles and two reference compounds were analyzed in the resulting homogenate by using LC/MS/MS.
The unidirectional brain transfer constants Kin (mL/g/min) were determined for the test articles and the high permeability reference, antipyrine, using the following equation for the single-point perfusion assay: […]
where: Cbr/Cpf is the apparent brain distribution volume (mL/g of brain tissue); Cbr is the concentration of drug in the brain tissue (pmol of drug per g of brain tissue); Cpf is the drug concentration in the perfusion fluid (pmol/mL of perfusate); and t is the net perfusion time (minutes).
Graphic representation and statistical analyses of the data were performed using GraphPad Prism software.

in vitro = conditions: human, pH 7.4, Papp
Source text: An in vitro model of MatTek EpiAir® tissue was used for the permeability assessment of the test articles and control compounds. The EpiAir® culture consists of cells that have been cultured to form a pseudo-stratified, highly differentiated model closely resembling the epithelial tissue of the human respiratory tract. The histological cross-sections of the cultured tissue reveal a pseudo-stratified mucociliary phenotype.
EpiAir® tissues plated in 12 well plates were pre-equilibrated for the assay by culturing them for 24 hours at 37° C. with 5% CO2 in a humidified incubator. On the day of the assay, the cultures were washed two times with Dulbeccos' Phosphate Buffered Saline (DPBS buffer) at pH 7.4, and then dosed with donor and receiver buffer applied to the apical and basolateral surfaces of the culture, respectively. The receiver buffer consisted of DPBS, at pH 7.4. The donor solution consisted of DPBS buffer containing the appropriate compounds as specified in Table 1. All treatments were performed in triplicate. The receiver buffer was sampled at 15, 30, 60, and 120 minutes, and the donor buffer was sampled at 120 minutes.
The Lucifer Yellow concentration in the receiver samples was measured using a FluoStar fluorescence plate reader (BMG Laboratories, Durham, N.C.).
The apparent permeability coefficient, Papp, was calculated as follows: […]
where: dCr/dt is the slope of the cumulative concentration in the receiver compartment versus time; Vr is the volume of the receiver compartment; A is the surface area of epithelium available for permeation; and Co is the dosing solution concentration.

[2] = Sprague-Dawley, rat, in vivo, 30 s
[3] = Table 5 Treatment 1: Compound A perfused with references, Average ± STD
[4] = Table 5 Treatment 1: Compound A perfused with references, Rat 1
[5] = Table 5 Treatment 1: Compound A perfused with references, Rat 2
[6] = Table 5 Treatment 1: Compound A perfused with references, Rat 3
[7] = Table 5 Treatment 2: Compound A perfused with references + CYP2D6 inhibitor Quinidine, Average ± STD
[8] = Table 5 Treatment 2: Compound A perfused with references + CYP2D6 inhibitor Quinidine, Rat 1
[9] = Table 5 Treatment 2: Compound A perfused with references + CYP2D6 inhibitor Quinidine, Rat 2
[10] = Table 5 Treatment 2: Compound A perfused with references + CYP2D6 inhibitor Quinidine, Rat 3
[11] = Table 4 Treatment 2: Compound B perfused with references + MAO inhibitor Pargyline, Rat 1
[12] = Table 4 Treatment 2: Compound B perfused with references + MAO inhibitor Pargyline, Rat 2
[13] = Table 4 Treatment 2: Compound B perfused with references + MAO inhibitor Pargyline, Rat 3

For CN[C@@H](C)C/C=C/c1cncc(OC)c1 [Compound A, (2S)-(4E)-N-methyl-5-(3-(5-methoxypyridin)yl)-4-penten-2-amine], the “Brain penetration (brain concentration, Kin) in the absence or presence of the CYP2D6 inhibitor Quinidine” value ([1]; N=3) was “no significant difference; also recorded: did not affect”, the “Kin relative to values reported for drugs that do not substantially penetrate the CNS” value [1, 2] was “more than 100 times” and the “Brain Concentration (corrected for drug retained in vascular volume)” value [1, 3] was 5504.5 ± 961.7 pmol/g. The Kin [1, 3] was 0.198+ ± 0.035 mL/g/min, the “Brain Concentration (corrected for drug retained in vascular volume)” value [1, 4] was 6558.8 pmol/g and the Kin [1, 4] was 0.236 mL/g/min. The “Brain Concentration (corrected for drug retained in vascular volume)” value [1, 5] was 5279.1 pmol/g, the Kin [1, 5] was 0.190 mL/g/min and the “Brain Concentration (corrected for drug retained in vascular volume)” value [1, 6] was 4675.5 pmol/g. For the same compound, the Kin [1, 6] was 0.168 mL/g/min, the “Brain Concentration (corrected for drug retained in vascular volume)” value [1, 7] was 5803.0 ± 278.8 pmol/g and the Kin [1, 7] was 0.212 ± 0.010 mL/g/min. The “Brain Concentration (corrected for drug retained in vascular volume)” value [1, 8] was 5574.4 pmol/g, the Kin [1, 8] was 0.203 mL/g/min and the “Brain Concentration (corrected for drug retained in vascular volume)” value [1, 9] was 6113.5 pmol/g. For the same compound, the Kin [1, 9] was 0.223 mL/g/min, the “Brain Concentration (corrected for drug retained in vascular volume)” value [1, 10] was 5721.1 pmol/g and the Kin [1, 10] was 0.209 mL/g/min. The “Average Kin of Compound A (absence of Quinidine) compared with Compound B (absence of Pargyline)” value ([1]; rat, in vivo) was “higher”, the “Potential to penetrate the brain” value ([1]; rat, in vivo) was “good potential” and the Papp at 120 min (in vitro) was 25.1 ×10⁻⁶ cm/s.

For CNCC/C=C/c1cccnc1 [Compound B, N-methyl-(4-pyridin-3-yl-but-3-enyl)-amine], the “Brain concentration and Kin in the presence of the MAO inhibitor Pargyline compared to alone” value [1, 2] was “^Significantly higher than the corresponding values of Compound B in the absence of enzymatic inhibitor (p < 0.05, two-tailed t-test)”, the “Kin relative to values reported for drugs that do not substantially penetrate the CNS” value [1, 2] was “more than 100 times” and the “Brain Concentration (corrected for drug retained in vascular volume)” value ([1]; Table 4 Treatment 1: Compound B perfused with references, Average ± STD) was 2681.0 ± 513.0 pmol/g. For the same compound, the “Brain Concentration (corrected for drug retained in vascular volume)” value ([1]; Table 4 Treatment 1: Compound B perfused with references, Rat 1) was 2725.9 pmol/g, the “Brain Concentration (corrected for drug retained in vascular volume)” value ([1]; Table 4 Treatment 1: Compound B perfused with references, Rat 2) was 3170.1 pmol/g and the “Brain Concentration (corrected for drug retained in vascular volume)” value ([1]; Table 4 Treatment 1: Compound B perfused with references, Rat 3) was 2147.0 pmol/g. The “Brain Concentration (corrected for drug retained in vascular volume)” value ([1]; Table 4 Treatment 2: Compound B perfused with references + MAO inhibitor Pargyline, Average ± STD) was 3652.8^ ± 293.1 pmol/g, the “Brain Concentration (corrected for drug retained in vascular volume)” value [1, 11] was 3358.2 pmol/g and the Kin [1, 11] was 0.110 mL/g/min. The “Brain Concentration (corrected for drug retained in vascular volume)” value [1, 12] was 3655.8 pmol/g, the Kin [1, 12] was 0.120 mL/g/min and the “Brain Concentration (corrected for drug retained in vascular volume)” value [1, 13] was 3944.4 pmol/g. For the same compound, the Kin [1, 13] was 0.129 mL/g/min, the “Brain concentration and Kin in the presence of the MAO inhibitor Pargyline compared to alone” value ([1]; rat, in vivo) was “significantly increased” and the “Potential to penetrate the brain” value ([1]; rat, in vivo) was “good potential”. It also gave a Papp at 120 min (in vitro; Treatment 1: Compound B assayed with controls, Average ± STD) of 18.3 ± 0.28 ×10⁻⁶ cm/s, a Papp at 120 min (in vitro; Treatment 1: Compound B assayed with controls, Rep 1) of 18.5 ×10⁻⁶ cm/s and a Papp at 120 min (in vitro; Treatment 1: Compound B assayed with controls, Rep 2) of 18 ×10⁻⁶ cm/s. For the same compound, the Papp at 120 min (in vitro; Treatment 1: Compound B assayed with controls, Rep 3) was 18.4 ×10⁻⁶ cm/s, the Papp at 120 min (in vitro; Treatment 2: Compound B assayed with controls + MAO inhibitor Pargyline, Average ± STD) was 25.4 ± 0.41 ×10⁻⁶ cm/s and the Papp at 120 min (in vitro; Treatment 2: Compound B assayed with controls + MAO inhibitor Pargyline, Rep 1) was 25.1 ×10⁻⁶ cm/s. It also gave a Papp at 120 min (in vitro; Treatment 2: Compound B assayed with controls + MAO inhibitor Pargyline, Rep 2) of 25.9 ×10⁻⁶ cm/s and a Papp at 120 min (in vitro; Treatment 2: Compound B assayed with controls + MAO inhibitor Pargyline, Rep 3) of 25.2 ×10⁻⁶ cm/s.
